Test results published in ChEMBL document CHEMBL1134038, “New triterpenes, myrrhanol A and myrrhanone A, from guggul-gum resins, and their potent anti-inflammatory effect on adjuvant-induced air-pouch granuloma of mice” (2001).

Key:
Assay type in all cases: functional
Mus musculus [1] = species on record: Mus musculus; assay: Inhibitory dose required against exudation (pouch fluid weight) tested for antiinflammatory activity in mice(parentheses value represents 95% confidence limits); details: read-out: ID50 (the source's name)
Mus musculus [2] = species on record: Mus musculus; assay: Inhibitory dose required against migration (inflammatory cell count) tested for antiinflammatory activity in mice(parentheses value represents 95% confidence limits); details: read-out: ID50 (the source's name)
Mus musculus [3] = species on record: Mus musculus; assay: Inhibitory dose required against angiogenesis (carmine content) tested for antiinflammatory activity in mice(parentheses value represents 95% confidence limits); details: read-out: ID50 (the source's name)
Mus musculus [4] = species on record: Mus musculus; assay: Inhibitory dose required against granuloma formation tested for antiinflammatory activity in mice(parentheses value represents 95% confidence limits); details: read-out: ID50 (the source's name)
Mus musculus [5] = assay: Inhibitory effect on inflammatory process IV (granuloma formation) at a log dose of -5.25mol/kg, ip relative to hydrocortisone on adjuvant-induced air-pouch granulomas of mice
Mus musculus [6] = assay: Anti-inflammatory effect on inflammatory process III (angiogenesis: carmine content) at a log dose of -1.5g/kg, ip, in adjuvant-induced air-pouch granuloma of mice(*)
Mus musculus [7] = assay: Weak anti-inflammatory and inflammatory effect on inflammatory process III (angiogenesis: carmine content) at a log dose of -3g/kg, ip, in adjuvant-induced air-pouch granuloma of mice(**)
Mus musculus [8] = assay: Weak anti-inflammatory and inflammatory effect on inflammatory process III (angiogenesis: carmine content) at a log dose of -1.5g/kg, ip, in adjuvant-induced air-pouch granuloma of mice(**)
Mus musculus [9] = assay: Anti-inflammatory effect on inflammatory process I (exudation: pouch fluid weight) at a log dose of -3g/kg, ip, in adjuvant-induced air-pouch granuloma of mice(*)
Mus musculus [10] = assay: Inhibitory effect on inflammatory process II (migration: inflammatory cell count) at a log dose of -6mol/kg, ip relative to hydrocortisone on adjuvant-induced air-pouch granulomas of mice
Mus musculus [11] = assay: Inhibitory effect on inflammatory process II (migration: inflammatory cell count) at a log dose of -5.6mol/kg, ip relative to hydrocortisone on adjuvant-induced air-pouch granulomas of mice
Mus musculus [12] = assay: Weak anti-inflammatory and inflammatory effect on inflammatory process II (migration: inflammatory cell count) at a log dose of -3g/kg, ip, in adjuvant-induced air-pouch granuloma of mice(**)
Mus musculus [13] = assay: Weak anti-inflammatory and inflammatory effect on inflammatory process II (migration: inflammatory cell count) at a log dose of -2.2g/kg, ip, in adjuvant-induced air-pouch granuloma of mice(**)
Mus musculus [14] = assay: Inhibitory effect on inflammatory process I (exudation: pouch fluid weight) at a log dose of -5.6mol/kg, ip relative to hydrocortisone on adjuvant-induced air-pouch granulomas of mice
Mus musculus [15] = assay: Weak anti-inflammatory and inflammatory effect on inflammatory process I (exudation: pouch fluid weight) at a log dose of -3g/kg, ip, in adjuvant-induced air-pouch granuloma of mice(**)
Mus musculus [16] = assay: Weak anti-inflammatory and inflammatory effect on inflammatory process I (exudation: pouch fluid weight) at a log dose of -1.5g/kg, ip, in adjuvant-induced air-pouch granuloma of mice(**)
Mus musculus [17] = assay: Weak anti-inflammatory and inflammatory effect on inflammatory process IV (granuloma formation) at a log dose of -3g/kg, ip, in adjuvant-induced air-pouch granuloma of mice(**)
Mus musculus [18] = assay: Inhibitory effect on inflammatory process I (exudation: pouch fluid weight) at a log dose of -6mol/kg, ip relative to hydrocortisone on adjuvant-induced air-pouch granulomas of mice
Mus musculus [19] = assay: Inhibitory effect on inflammatory process II (migration: inflammatory cell count) at a log dose of -5.25mol/kg, ip relative to hydrocortisone on adjuvant-induced air-pouch granulomas of mice
Mus musculus [20] = assay: Weak anti-inflammatory and inflammatory effect on inflammatory process III (angiogenesis: carmine content) at a log dose of -2.2g/kg, ip, in adjuvant-induced air-pouch granuloma of mice(**)
Mus musculus [21] = assay: Inhibitory effect on inflammatory process III (angiogenesis: carmine content) at a log dose of -5.25mol/kg, ip relative to hydrocortisone on adjuvant-induced air-pouch granulomas of mice
Mus musculus [22] = assay: Anti-inflammatory effect on inflammatory process III (angiogenesis: carmine content) at a log dose of -2.25g/kg, ip, in adjuvant-induced air-pouch granuloma of mice(*)
Mus musculus [23] = assay: Anti-inflammatory effect on inflammatory process I (exudation: pouch fluid weight) at a log dose of -2.25g/kg, ip, in adjuvant-induced air-pouch granuloma of mice(*)
Mus musculus [24] = assay: Anti-inflammatory effect on inflammatory process III (angiogenesis: carmine content) at a log dose of -3g/kg, ip, in adjuvant-induced air-pouch granuloma of mice(*)
Mus musculus [25] = assay: Inhibitory effect on inflammatory process IV (granuloma formation) at a log dose of -6mol/kg, ip relative to hydrocortisone on adjuvant-induced air-pouch granulomas of mice
Mus musculus [26] = assay: Weak anti-inflammatory and inflammatory effect on inflammatory process I (exudation: pouch fluid weight) at a log dose of -2.2g/kg, ip, in adjuvant-induced air-pouch granuloma of mice(**)
Mus musculus [27] = assay: Weak anti-inflammatory and inflammatory effect on inflammatory process II (migration: inflammatory cell count) at a log dose of -1.5g/kg, ip, in adjuvant-induced air-pouch granuloma of mice(**)
Mus musculus [28] = assay: Anti-inflammatory effect on inflammatory process IV (granuloma formation) at a log dose of -3g/kg, ip, in adjuvant-induced air-pouch granuloma of mice(*)
Mus musculus [29] = assay: Anti-inflammatory effect on inflammatory process IV (granuloma formation) at a log dose of -2.25g/kg, ip, in adjuvant-induced air-pouch granuloma of mice(*)
Mus musculus [30] = assay: Anti-inflammatory effect on inflammatory process IV (granuloma formation) at a log dose of -1.5g/kg, ip, in adjuvant-induced air-pouch granuloma of mice(*)
Mus musculus [31] = assay: Anti-inflammatory effect on inflammatory process I (exudation: pouch fluid weight) at a log dose of -1.5g/kg, ip, in adjuvant-induced air-pouch granuloma of mice(*)
Mus musculus [32] = assay: Inhibitory effect on inflammatory process IV (granuloma formation) at a log dose of -5.6mol/kg, ip relative to hydrocortisone on adjuvant-induced air-pouch granulomas of mice
Mus musculus [33] = assay: Inhibitory effect on inflammatory process I (exudation: pouch fluid weight) at a log dose of -5.25mol/kg, ip relative to hydrocortisone on adjuvant-induced air-pouch granulomas of mice
Mus musculus [34] = assay: Anti-inflammatory effect on inflammatory process II (migration: inflammatory cell count) at a log dose of -2.25g/kg, ip, in adjuvant-induced air-pouch granuloma of mice(*)
Mus musculus [35] = assay: Weak anti-inflammatory and inflammatory effect on inflammatory process IV (granuloma formation) at a log dose of -1.5g/kg, ip, in adjuvant-induced air-pouch granuloma of mice(**)
Mus musculus [36] = assay: Anti-inflammatory effect on inflammatory process II (migration: inflammatory cell count) at a log dose of -1.5g/kg, ip, in adjuvant-induced air-pouch granuloma of mice(*)
Mus musculus [37] = assay: Anti-inflammatory effect on inflammatory process II (migration: inflammatory cell count) at a log dose of -3g/kg, ip, in adjuvant-induced air-pouch granuloma of mice(*)
Mus musculus [38] = assay: Weak anti-inflammatory and inflammatory effect on inflammatory process IV (granuloma formation) at a log dose of -2.2g/kg, ip, in adjuvant-induced air-pouch granuloma of mice(**)
Mus musculus [39] = assay: Inhibitory effect on inflammatory process III (angiogenesis: carmine content) at a log dose of -6mol/kg, ip relative to hydrocortisone on adjuvant-induced air-pouch granulomas of mice
Mus musculus [40] = assay: Inhibitory effect on inflammatory process III (angiogenesis: carmine content) at a log dose of -5.6mol/kg, ip relative to hydrocortisone on adjuvant-induced air-pouch granulomas of mice

SMILES	ED50 (Mus musculus [1])	ED50 (Mus musculus [3])	ED50 (Mus musculus [4])	Relative amount (Mus musculus [6])	Relative amount (Mus musculus [7])	Relative amount (Mus musculus [8])	Relative amount (Mus musculus [9])	Relative amount (Mus musculus [10])	Relative amount (Mus musculus [12])	Relative amount (Mus musculus [13])	Relative amount (Mus musculus [15])	Relative amount (Mus musculus [16])	Relative amount (Mus musculus [17])	Relative amount (Mus musculus [18])	Relative amount (Mus musculus [20])	Relative amount (Mus musculus [22])	Relative amount (Mus musculus [23])	Relative amount (Mus musculus [24])	Relative amount (Mus musculus [25])	Relative amount (Mus musculus [26])	other results
C[C@]12CCC(=O)C=C1CCC1[C@@H]2[C@@H](O)C[C@@]2(C)[C@H]1CC[C@]2(O)C(=O)CO (single isomer, unassigned) [HYDROCORTISONE]	6.31 µmol/kg	22.1 µmol/kg	29.2 µmol/kg																		ED50 (Mus musculus [2]): 11.7 µmol/kg
C/C(=C\CC/C(C)=C/CC/C(C)=C/CC[C@@H]1[C@@]2(C)CC[C@H](O)C(C)(C)C2CC[C@@]1(C)O)CO (stereo partly specified)	1.75 µmol/kg	2.8 µmol/kg	5.83 µmol/kg	<50%	75%	50%	45%	105%	100%	70%	100%	25%	80%	70%	65%	<52%	35%	<63%	85%	27%	Relative amount (Mus musculus [5]): <50%; Relative amount (Mus musculus [11]): 90%; Relative amount (Mus musculus [14]): <20%; Relative amount (Mus musculus [19]): 115%; Relative amount (Mus musculus [21]): <30%; Relative amount (Mus musculus [27]): 65%; Relative amount (Mus musculus [28]): <70%; Relative amount (Mus musculus [29]): <65%; Relative amount (Mus musculus [30]): <55%; Relative amount (Mus musculus [31]): <15%; Relative amount (Mus musculus [32]): <75%; Relative amount (Mus musculus [33]): <5%; Relative amount (Mus musculus [34]): 65%; Relative amount (Mus musculus [35]): 60%; Relative amount (Mus musculus [36]): 60%; Relative amount (Mus musculus [37]): 80%; Relative amount (Mus musculus [38]): 62%; Relative amount (Mus musculus [39]): 87%; Relative amount (Mus musculus [40]): <47%
C/C(=C\CC/C(C)=C/CC/C(C)=C/CC[C@@H]1[C@@]2(C)CCC(=O)C(C)(C)C2CC[C@@]1(C)O)CO (stereo partly specified)				<50%	90%	180%	75%	75%	85%	170%	70%	250%	65%	90%	185%	83%	65%	83%	75%	225%	Relative amount (Mus musculus [27]): 175%; Relative amount (Mus musculus [28]): 80%; Relative amount (Mus musculus [29]): <68%; Relative amount (Mus musculus [30]): <55%; Relative amount (Mus musculus [31]): 60%; Relative amount (Mus musculus [34]): 85%; Relative amount (Mus musculus [35]): 100%; Relative amount (Mus musculus [36]): 70%; Relative amount (Mus musculus [37]): 95%; Relative amount (Mus musculus [38]): 100%; Relative amount (Mus musculus [39]): 105%
